Laboratory results: patent publication US7618945B2, “Heteroaryl peptidomimetics as thrombin receptor antagonists” (Janssen Pharmaceutica, N.V., priority 2002, dated 2009)

Key:
gel-filtered platelets [1] = experiment: Inhibition of thrombin-induced gel-filtered platelet aggregation; assay type: cell-based; conditions: aggregation initiated by human α-thrombin 0.113 nM-0.187 nM, OD 650 at 0 and 5 min
Description: (§1) In Vitro Inhibition Of Thrombin- and SFLLRN-NH2-Induced Gel-Filtered Platelet Aggregation Assay
(§2) Platelet Rich Plasma concentrate (Biological Specialties, Inc) is gel filtered (Sepharose 2B, Pharmacia) in Tyrode's buffer (140 mM NaCl, 2.7 mM KCl, 12 mM NaHCO3, 0.76 mM Na2HPO4, 5.5 mM dextrose, 5.0 mM Hepes, and 2 mg/ml BSA @ pH 7.4). The gel-filtered platelets are diluted with Tyrode's buffer (143,000 platelets/μl, final platelet count per well), compound solution in buffer, and 2 mM CaCl2 in a 96 well plate. Platelet aggregation is initiated by the addition of human α-thrombin (American Diagnostica, 0.113 nM-0.187 nM) or SFLLRN-NH2 (2 μM) shown to achieve 80% aggregation (0.015-0.025 NIH U/ml, 0.113 nM-0.187 nM). The assay plate is stirred constantly. Platelet aggregation is monitored by intermittently placing the plate in a microplate reader (Molecular Devices) to read optical density ([…], ΔSOFT) at 0 and 5 minutes after the thrombin addition. Aggregation was calculated to be the decrease in optical density between the time 0 and 5 minute measurements. All samples were tested in duplicate wells on the same plate.
(§3) Table 3 contains IC50 values (μM) of the compounds against platelet aggregation stimulated by thrombin and IC50 values (μM) in a thrombin receptor (PAR-1) binding assay.

gel-filtered platelets [2] = experiment: Inhibition of SFLLRN-NH2-induced gel-filtered platelet aggregation; assay type: cell-based; conditions: aggregation initiated by SFLLRN-NH2 (2 μM), OD 650 at 0 and 5 min
Description: as §1, §2

[3] = target: T1, thrombin receptor (PAR-1) (Homo sapiens, UniProt P25116); experiment: In vitro thrombin receptor binding assay (CHRF membranes); conditions: tritiated 721-40 (Ser-pFPhe-Har-Leu-Har-Lys-Tyr-NH2), 30 min incubation
T1 construct: CHRF membranes (Jones, Biochim. Biophys. Acta 1992, 1136, 272) are thawed from −70° C; endogenous in cells; host or cells: CHRF cell membranes (CHRF-288 megakaryoblastic line, per the cited Jones 1992)
T1 sequence (P25116 22-425): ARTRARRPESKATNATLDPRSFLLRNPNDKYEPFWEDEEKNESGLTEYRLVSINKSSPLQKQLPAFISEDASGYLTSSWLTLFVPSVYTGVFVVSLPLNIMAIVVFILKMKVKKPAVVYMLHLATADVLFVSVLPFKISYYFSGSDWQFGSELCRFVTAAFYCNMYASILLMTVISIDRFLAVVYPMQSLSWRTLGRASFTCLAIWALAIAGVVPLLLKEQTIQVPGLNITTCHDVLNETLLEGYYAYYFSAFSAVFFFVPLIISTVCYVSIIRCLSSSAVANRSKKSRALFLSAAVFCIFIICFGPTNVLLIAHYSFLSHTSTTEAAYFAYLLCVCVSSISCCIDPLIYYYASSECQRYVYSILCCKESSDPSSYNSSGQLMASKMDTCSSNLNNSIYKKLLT
Description: In Vitro Thrombin Receptor Binding Assay
CHRF membranes (Jones, Biochim. Biophys. Acta 1992, 1136, 272) are thawed from −70° C., centrifuged at maximum speed for 5 min, washed twice with binding buffer (50 mM HEPES containing 5 mM MgCl2 and 0.1% BSA), and re-suspended in binding buffer ([…]). 100 μL of membranes are added to the 24-Wallac plates and delivered to the Tomtech apparatus. In a typical experiment, 6 μL of samples (from a 125 μg/mL intermediary plate, 20% DMSO) and 44 μL buffer are delivered to the plates (final conc. of compounds is 3.7 μg/mL, 0.6% DMSO). Similarly, 6 μL 20% DMSO and 44 μL buffer are delivered to both column 1 (NSB) and column 12 (TB). 10 μL Ser-pFPhe-Har-Leu-Har-Lys-Tyr-NH2 (721-40; 500 μM in deionized water) is added to column 1. 50 μL tritiated 721-40 (specific activity 46 Ci/mmol) is added to all the wells. The plates are mixed well for 20 seconds, incubated for 30 min, and then harvested with 10 mM HEPES/138 mM NaCl using the Skatron harvester. The filters (GF/C Brandel FPXLR 296) are presoaked 3 h in 0.5% polyethylenimine in HEPES/0.1M N-acetylglucosamine) are set in saran wrap and dried for 3 min in the microwave, and placed in sample bags (Wallac 1450-432). 4.5 mL scintillation fluid (Wallac, Betaplate Scint 1205-440) is added. The bags are sealed, placed in filter cassettes (Wallac 1450-104), and analyzed on the microbeta counter.
as §3

Row | SMILES | IC50 (gel-filtered platelets [1]; Platelet) [µM] | IC50 (gel-filtered platelets [2]; Platelet) [µM] | IC50 [3] [µM] | IC50 (gel-filtered platelets [1]) [µM] | IC50 (gel-filtered platelets [2]) [µM]
1 | CC(=O)N[C@@H](CCCNC(=N)N)C(=O)N[C@@H](CC1CCCCC1)C(=O)Nc1ccc2c(CN3CCCC3)cn(Cc3ccc(F)cc3)c2c1 [Compound 21] | 4.7 | 3.2 | 10.7 | – | –
2 | N=C(N)NCCCC(NC(=O)Cc1ccccc1)C(=O)NC(Cc1ccccc1)C(=O)Nc1ccc2c(c1)c(CN1CCCC1)cn2Cc1ccc(F)cc1 (centres unmarked) [Compound 17, 5-Guanidino-2-phenylacetylamino-pentanoic acid {1-[1-(4-fluoro-benzyl)-3-pyrrolidin-1-ylmethyl-1H-indol-5-ylcarbamoyl]-2-phenyl-ethyl}-amide] | – | – | 10.4 | 44.5 | 9.8
3 | CCCNCc1cn(Cc2ccc(F)cc2)c2ccc(NC(=O)[C@@H](Cc3ccccc3)NC(=O)[C@@H](CCCNC(=N)N)NC(=O)OC3c4ccccc4-c4ccccc43)cc12 [Compound 1] | 51.6 | 43.7 | – | – | –
4 | N=C(N)NCCC[C@H](NC(=O)OCc1ccccc1)C(=O)N[C@@H](Cc1ccccc1)C(=O)Nc1ccc2c(CN3CCCC3)cn(Cc3ccc(F)cc3)c2c1 [Compound 19] | 18.7 | 11.1 | 2.4 | – | –
